This is an account of results in US6511993B1, “Metalloprotease inhibitors” (priority 1999, dated 2003).

Counter-ions that a name gives are not always drawn.

For series [1], the target named is T1, MMP-3 (Homo sapiens, UniProt P08254).
T1 construct: Catalytic domains MMP-2, MMP-3 and MMP-9 were prepared; made in house
The series can be described thus: Inhibition of MMP-3, fluorogenic peptide cleavage. The series is classed as biochemical. The settings on record: catalytic domain MMP-3, 1 nM enzyme, 5 μM substrate. The method, then:
(§1) The biological activities of the compounds of the present invention were determined by the following test methods, which are based on the ability of the compounds to inhibit the cleavage of various fluorogenic peptides by MMPs 1, 2, 3, 9, 13 and 14.
(§2) The assays for MMPs 2, 3, 9 and 14 are based upon the original protocol described in Fed. Euro. Biochem. Soc., 1992, 296, 263, with the minor modifications described below.
(§3) Inhibition of MMP-2, MMP-3 and MMP-9
(§4) Catalytic domains MMP-2, MMP-3 and MMP-9 were prepared in Pfizer Central Research laboratories in a standard manner from sources known to the skilled person, including some of the references mentioned herein. A stock solution of MMP-2, MMP-3 or MMP-9 (1 μM) was activated by the addition of APMA. For MMP-2 and MMP-9, a final concentration of 1 mM APMA was added, followed by incubation for 1 hour at 37° C. MMP-3 was activated by the addition of 2 mM APMA, followed by incubation for 3 hours at 37° C. The enzymes were then diluted in Tris-HCl assay buffer (100 mM Tris, 100 mM NaCl, 10 mM CaCl2 and 0.16% Brij 35, pH 7.5) to a concentration of 10 nM. The final concentration of enzyme used in the assays was 1 nM.
(§5) The fluorogenic substrate used in this screen was Mca-Arg-Pro-Lys-Pro-Tyr-Ala-Nva-Trp-Met-Lys(Dnp)-NH2 (Bachem Ltd., Essex, UK) as originally described in J. Biol. Chem., 1994, 269, 20952. This substrate was selected because it has a balanced hydrolysis rate against MMPs 2, 3 and 9 (kcat/km of 54,000, 59,400 and 55,300 s^−1 M^−1 respectively). The final substrate concentration used in the assay was 5 μM.
(§6) Determination of Enzyme Inhibition
(§7) The test compound was dissolved in dimethyl sulphoxide and diluted with assay buffer so that no more than 1% dimethyl sulphoxide was present. Test compound and enzyme were added to each well of a 96 well plate and allowed to equilibrate for 15 minutes at 37° C. in an orbital shaker prior to the addition of substrate. Plates were then incubated for 1 hour at 37° C., prior to determination of fluorescence using a fluorimeter (Fluostar; BMG LabTechnologies, Aylesbury, UK) at an excitation wavelength of 328 nm and emission wavelength of 393 nm. The potency of inhibition was measured from the amount of substrate cleavage obtained using a range of test compound concentrations and, from the resulting dose-response curve, an IC50 value (the concentration of inhibitor required to inhibit 50% of the enzyme activity) was calculated.

Series [2] deals with MMP-2 (Homo sapiens, UniProt P08253). As to the kind of experiment: Inhibition of MMP-2, fluorogenic peptide cleavage. The series is classed as biochemical. The settings on record: catalytic domain MMP-2, 1 nM enzyme, 5 μM substrate. The method, then: as §1, §2, §3, §4, §5, §6, §7
Sequence of MMP-2 (P08253 whole entry, the tested form may be a part): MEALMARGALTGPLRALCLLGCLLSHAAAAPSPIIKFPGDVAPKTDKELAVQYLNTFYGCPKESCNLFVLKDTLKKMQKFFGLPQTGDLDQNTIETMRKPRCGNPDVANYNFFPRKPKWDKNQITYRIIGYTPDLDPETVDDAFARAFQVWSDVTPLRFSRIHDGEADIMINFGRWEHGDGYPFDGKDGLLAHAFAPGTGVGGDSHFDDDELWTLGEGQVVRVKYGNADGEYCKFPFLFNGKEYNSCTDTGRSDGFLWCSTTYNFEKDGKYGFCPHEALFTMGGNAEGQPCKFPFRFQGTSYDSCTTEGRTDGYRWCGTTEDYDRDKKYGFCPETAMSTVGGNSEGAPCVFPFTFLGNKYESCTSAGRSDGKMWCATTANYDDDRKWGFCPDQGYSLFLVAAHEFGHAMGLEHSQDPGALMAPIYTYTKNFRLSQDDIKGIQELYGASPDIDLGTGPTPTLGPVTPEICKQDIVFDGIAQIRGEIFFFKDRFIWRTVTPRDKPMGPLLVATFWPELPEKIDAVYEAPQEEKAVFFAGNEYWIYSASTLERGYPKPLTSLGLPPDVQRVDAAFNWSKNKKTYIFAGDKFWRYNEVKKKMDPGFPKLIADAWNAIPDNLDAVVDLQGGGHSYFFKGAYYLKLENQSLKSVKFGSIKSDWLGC
Series [3] deals with T2, MMP-14 (Homo sapiens, UniProt P50281).
T2 construct: Catalytic domain MMP-14 was prepared; made in house
As to the kind of experiment: Inhibition of MMP-14, fluorogenic peptide cleavage. The following applies: catalytic domain MMP-14, 1 nM enzyme. The series is classed as biochemical. The protocol: as §1, §2
Catalytic domain MMP-14 was prepared in Pfizer Central Research laboratories in a standard manner from sources known to the skilled person, including some of the references mentioned herein. A 10 μM enzyme stock solution was activated for 20 minutes at 25° C. following the addition of 5 μg/ml of trypsin (Sigma, Dorset, UK). The trypsin activity was then neutralised by the addition of 50 μg/ml of soyabean trypsin inhibitor (Sigma, Dorset, UK), prior to dilution of this enzyme stock solution in Tris-HCl assay buffer (100 mM Tris, 100 mM NaCl, 10 mM CaCl2, 0.16% Brij 35, pH 7.5) to a concentration of 10 nM. The final concentration of enzyme used in the assay was 1 nM.
The fluorogenic substrate used in this screen was Mca-Pro-Leu-Gly-Leu-Dpa-Ala-Arg-NH2 (Bachem Ltd., Essex, UK) as described in J. Biol. Chem., 1996, 271, 17119.
Determination of enzyme inhibition
This was performed in the same manner as described for MMPs 2, 3 and 9.

For series [4], the target named is MMP-9 (Homo sapiens, UniProt P14780). As to the kind of experiment: Inhibition of MMP-9, fluorogenic peptide cleavage. The series is classed as biochemical. The settings on record: catalytic domain MMP-9, 1 nM enzyme, 5 μM substrate. The protocol: as §1, §2, §3, §4, §5, §6, §7
Sequence of MMP-9 (P14780 whole entry, the tested form may be a part): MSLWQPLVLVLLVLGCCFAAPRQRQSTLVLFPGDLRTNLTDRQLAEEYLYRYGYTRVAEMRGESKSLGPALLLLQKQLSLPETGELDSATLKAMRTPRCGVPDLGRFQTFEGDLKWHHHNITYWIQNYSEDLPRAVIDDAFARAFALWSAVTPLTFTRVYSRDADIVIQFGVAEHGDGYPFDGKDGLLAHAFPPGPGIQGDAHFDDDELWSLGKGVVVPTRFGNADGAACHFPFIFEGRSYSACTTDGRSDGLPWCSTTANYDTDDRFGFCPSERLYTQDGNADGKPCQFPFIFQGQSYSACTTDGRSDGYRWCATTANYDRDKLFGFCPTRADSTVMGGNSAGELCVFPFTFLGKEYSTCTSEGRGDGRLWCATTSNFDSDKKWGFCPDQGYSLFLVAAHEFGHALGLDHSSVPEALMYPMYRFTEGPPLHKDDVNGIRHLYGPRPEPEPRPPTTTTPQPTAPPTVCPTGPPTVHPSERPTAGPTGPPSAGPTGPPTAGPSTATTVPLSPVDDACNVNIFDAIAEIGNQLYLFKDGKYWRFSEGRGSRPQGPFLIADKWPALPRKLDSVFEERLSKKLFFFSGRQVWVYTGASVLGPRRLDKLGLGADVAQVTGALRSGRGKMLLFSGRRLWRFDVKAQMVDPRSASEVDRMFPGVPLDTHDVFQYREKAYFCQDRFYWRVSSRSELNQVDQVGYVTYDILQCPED
Series [5] concerns the target T3, MMP-1 (Homo sapiens, UniProt P03956).
T3 construct: Catalytic domain MMP-1 was prepared; made in house
T3 sequence (P03956 100-269 limits assumed): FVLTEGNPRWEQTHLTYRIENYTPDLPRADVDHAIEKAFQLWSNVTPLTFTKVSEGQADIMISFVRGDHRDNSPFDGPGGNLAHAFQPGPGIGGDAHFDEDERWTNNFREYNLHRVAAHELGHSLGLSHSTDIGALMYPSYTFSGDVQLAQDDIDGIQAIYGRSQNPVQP
The series can be described thus: Inhibition of MMP-1, fluorogenic peptide cleavage. The settings on record: catalytic domain MMP-1, 1 nM enzyme, 10 μM substrate. The series is classed as biochemical. The protocol: as §1
Catalytic domain MMP-1 was prepared in Pfizer Central Research laboratories in a standard manner from sources known to the skilled person, including some of the references mentioned herein. A stock solution of MMP-1 (1 μM) was activiated by the addition of aminophenylmercuric acetate (APMA), at a final concentration of 1 mM, for 20 minutes at 37° C. MMP-1 was then diluted in Tris-HCl assay buffer (50 mM Tris, 200 mM NaCl, 5 mM CaCl2, 20 μM ZnSO4 and 0.05% Brij 35, pH 7.5) to a concentration of 10 nM. The final concentration of enzyme used in the assay was 1 nM.
The fluorogenic substrate used in this assay was Dnp-Pro-β-cyclohexyl-Ala-Gly-Cys(Me)-His-Ala-Lys-(N-Me-Ala)-NH2 as originally described in Anal. Biochem., 1993, 212, 58. The final substrate concentration used in the assay was 10 μM.
as §6
as §7, with “C.” for “C.,”, “fluorescence (substrate cleavage)” for “fluorescence”, “355” for “328”, “440” for “393”, “IC50,” for “IC50”

Series [6] has as its system human ovarian carcinoma xenografts. The settings on record: mice carrying human ovarian carcinoma xenografts; Cancer Res., 1993, 53, 2087; cited from earlier work. On the technique in general: Xenograft models place foreign cells or tissue in a host animal.

T1 sequence (P08254 100-272 limits assumed): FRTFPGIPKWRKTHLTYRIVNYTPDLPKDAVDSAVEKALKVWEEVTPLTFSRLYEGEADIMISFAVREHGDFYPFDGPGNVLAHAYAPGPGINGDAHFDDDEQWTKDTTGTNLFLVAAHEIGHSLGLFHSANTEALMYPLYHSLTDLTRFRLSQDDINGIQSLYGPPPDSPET

Take `Cc1cc(C2CCN(S(=O)(=O)C3(C(=O)NO)CCOCC3)CC2)ccc1-c1cccc(OCCO)n1` [Example 3, N-Hydroxy 4-{[4-(4-{6-[2-hydroxyethoxy]pyridin-2-yl}-3-methylphenyl)piperidin-1-yl]sulphonyl}tetrahydro-2H-pyran-4-carboxamide]: the concentration for half-maximal inhibition (IC50) was less than 10 nM in series [1]; greater than 100 nM in series [2]; greater than 2000 nM in series [3]; greater than 70 nM in series [4]; greater than 1000 nM in series [5].
As to `Cc1cc(C2CCN(S(=O)(=O)C3(C(=O)NO)CCOCC3)CC2)ccc1-c1cccc(OC[C@H](O)CO)n1` [Example 5, N-Hydroxy 4-{[4-(4-{6-[(2R)-2,3-dihydroxy-1-propoxy]pyridin-2-yl}-3-methylphenyl)piperidin-1-yl]sulphonyl}tetrahydro-2H-pyran-4-carboxamide], the melting point is 125 to 130 °C. The same compound showed an IC50 in series [1] of less than 10 nM. The compound also registered an IC50 in series [2] greater than 100 nM. Further, the IC50 in series [3] is greater than 2000 nM. The compound also showed an IC50 in series [4] greater than 70 nM. The IC50 in series [5] is greater than 1000 nM.
On to `CNC(=O)[C@H](Cc1ccccc1)NC(=O)[C@H](CC(C)C)[C@H](CSc1cccs1)C(=O)NO` [BB-94], for which, in series [6], the survival result is listed as “prolong the survival” and the tumour burden entry is reported as “decrease the tumour burden”.
With `Cc1cc(C2CCN(S(=O)(=O)C3(C(=O)NO)CCNCC3)CC2)ccc1-c1cccc(OCCO)n1` [Example 6, N-Hydroxy 4-{[4-(4-{6-[2-hydroxyethoxy]pyridin-2-yl}-3-methylphenyl)piperidin-1-yl]sulphonyl}-piperidine-4-carboxamide dihydrochloride], the IC50 in series [1] was less than 10 nM; in series [2] it was greater than 100 nM; in series [3], greater than 2000 nM; in series [4], greater than 70 nM; in series [5] it was greater than 1000 nM.
The corresponding values for `Cc1cc(C2CCN(S(=O)(=O)C3(C(=O)NO)CCOCC3)CC2)ccc1-c1cccc(OC[C@@H](O)CO)n1` [Example 4, N-Hydroxy 4-{[4-(4-{6-[(2S)-2,3-dihydroxy-1-propoxy]pyridin-2-yl}-3-methylphenyl)piperidin-1-yl]sulphonyl}tetrahydro-2H-pyran-4-carboxamide] are less than 10 nM, greater than 100 nM, greater than 2000 nM, greater than 70 nM and greater than 1000 nM.
The corresponding values for `Cc1cc(C2CCN(S(=O)(=O)C3(C(=O)NO)CCOCC3)CC2)ccc1-c1cccc(OC[C@@H](O)CO)c1` [Example 10, N-Hydroxy 4-{4-[4-(3-{(2S)-2-hydroxy-2-hydroxymethyl}ethoxyphenyl)-3-methylphenyl]-piperidin-1-ylsulphonyl}-tetrahydro-2H-pyran-4-carboxamide] are less than 10 nM, greater than 100 nM, greater than 2000 nM, greater than 70 nM and greater than 1000 nM.
The corresponding values for `Cc1cc(C2CCN(S(=O)(=O)C3(C(=O)NO)CCN(C)CC3)CC2)ccc1-c1cccc(OCCO)n1` [Example 7, N-Hydroxy 4-{[4-(4-{6-[2-hydroxyethoxy]pyridin-2-yl}-3-methylphenyl)piperidin-1-yl]sulphonyl}-1-methyl-piperidine-4-carboxamide] are less than 10 nM, greater than 100 nM, greater than 2000 nM, greater than 70 nM and greater than 1000 nM.
The compound `Cc1cc(C2CCN(S(=O)(=O)C3(C(=O)NO)CCOCC3)CC2)ccc1-c1cccc(OCCN)c1.Cl` [Example 14, N-Hydroxy 4-{[4-(-4-{3-[2-aminoethoxy]phenyl}-3-methylphenyl)piperidin-1-yl]sulphonyl}tetrahydro-2H-pyran-4-carboxamide hydrochloride] gave a melting point of 208 to 210 °C. This compound showed a 50% inhibitory concentration (IC50) in series [1] of less than 10 nM. In series [2], this compound yielded an IC50 greater than 100 nM. The IC50 in series [3] is greater than 2000 nM. Further, in series [4], the IC50 is greater than 70 nM. Moreover, the IC50 in series [5] is greater than 1000 nM.

One may read the IC50 as the concentration needed to halve the response being measured. Broadly, the melting point is the temperature, or range, at which the solid turns liquid.
